Data published in EP1261344B1, “USE OF INDOLOQUINOXALINES FOR THE TREATMENT OF MULTIPLE SKLEROSIS” (OxyPharma AB, priority 2000, dated 2001).

Key:
mice = assay: Chronic toxicity in mice, up to 270 days; type: in vivo; conditions: tested up to 270 days on mice
[1] = test system: EAE (experimental autoimmune encephalomyelitis) model; assay: EAE (experimental autoimmune encephalomyelitis) rat model, clinical score; type: in vivo, Lewis rats; conditions: for onset is delayed / recovery starts earlier: Figure 2, versus control
[2] = Acute toxicity in rabbit, cutaneous; conditions: in vivo, topical or ocular, read-out: NOEL (No Observable Effect Level)
Acute toxicity in rat = conditions: in vivo

Compound: Cc1cc2nc3c4ccccc4n(CCN(C)C)c3nc2cc1C [B-220]
- chronic toxicity (mice): has not induced toxicity
- reduces the CNS symptoms ([1]; Figure 1, 6 mg/animal daily, clinical score scale 0-5, versus negative control): 2/3
- onset is delayed ([1]; 6 mg/animal): ~2 days
- recovery starts earlier ([1]; 6 mg/animal): ~2 days
- onset is delayed ([1]; 12 mg/animal): ~4 days
- recovery starts earlier ([1]; 12 mg/animal): ~3 days
- NOAEL [2]: 200 mg/kg
- NOAEL (Acute toxicity in rat; intravenous, read-out: NOEL (No Observable Effect Level)): 12.5 mg/kg
- LD50 (Acute toxicity in rat; iv): > 100 mg/kg
- LD50 (Acute toxicity in rat; po): > 800 mg/kg
